The target of this assay is FliI ATPase (FliI^WT) (Salmonella enterica, UniProt P26465). Particulars: in the presence of phospholipids; triplicate assays.
Sequence of FliI ATPase (FliI^WT) (P26465 whole entry): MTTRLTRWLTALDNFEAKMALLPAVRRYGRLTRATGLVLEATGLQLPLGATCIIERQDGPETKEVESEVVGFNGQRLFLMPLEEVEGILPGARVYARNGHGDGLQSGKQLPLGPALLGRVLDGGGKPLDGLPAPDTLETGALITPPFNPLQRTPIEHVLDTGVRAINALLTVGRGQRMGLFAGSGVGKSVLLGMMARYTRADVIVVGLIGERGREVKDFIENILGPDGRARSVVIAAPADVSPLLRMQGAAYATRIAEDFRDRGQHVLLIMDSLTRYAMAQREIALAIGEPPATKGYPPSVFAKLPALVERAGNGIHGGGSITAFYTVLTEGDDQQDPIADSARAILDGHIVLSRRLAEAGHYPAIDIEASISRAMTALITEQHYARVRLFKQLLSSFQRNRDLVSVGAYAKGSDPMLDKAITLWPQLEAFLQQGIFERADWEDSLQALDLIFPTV

`Nc1ncnc2c1ncn2[C@@H]1O[C@H](COP(=O)(O)OP(=O)(O)OP(=O)(O)O)[C@@H](O)[C@H]1O` [ATP]: the Km was found to be 1 ± 15% mM.

The values above are taken from paper PMC2546511 (Journal of Molecular Biology, 2007).
